Measured values reported in ChEMBL document CHEMBL1201862, “PubChem BioAssay data set” (2004).
Active and inactive are the calls of the source.

How the values were obtained:
[1] = Luminescence Cell-Based Dose Retest to Confirm Inhibitors of Cancer Stem Cells. [Related pubchem assays (depositor defined):AID2717, AID2721]; type: functional; settings: Homo sapiens
[2] = target: T1, Corticotropin-releasing factor receptor 2/Corticotropin-releasing factor-binding protein (Homo sapiens, UniProt P24387+Q13324); assay: Dose Response confirmation of uHTS hits for small molecule antagonists of the CRF-binding protein and CRF-R2 receptor complex.; type: functional; settings: read-out: IC50_Mean
T1 sequence (Q13324 whole entry): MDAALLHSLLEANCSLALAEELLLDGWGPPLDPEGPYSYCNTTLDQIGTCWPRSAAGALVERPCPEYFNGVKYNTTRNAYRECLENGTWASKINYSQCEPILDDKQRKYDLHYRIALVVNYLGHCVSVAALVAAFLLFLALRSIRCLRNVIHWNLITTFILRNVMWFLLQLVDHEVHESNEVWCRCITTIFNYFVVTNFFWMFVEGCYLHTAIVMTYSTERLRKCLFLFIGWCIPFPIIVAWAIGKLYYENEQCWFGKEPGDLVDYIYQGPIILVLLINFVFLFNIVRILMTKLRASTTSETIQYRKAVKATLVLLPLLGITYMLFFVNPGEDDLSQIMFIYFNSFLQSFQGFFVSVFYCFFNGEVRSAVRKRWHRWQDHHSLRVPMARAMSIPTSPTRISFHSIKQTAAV
T1 sequence (P24387 whole entry): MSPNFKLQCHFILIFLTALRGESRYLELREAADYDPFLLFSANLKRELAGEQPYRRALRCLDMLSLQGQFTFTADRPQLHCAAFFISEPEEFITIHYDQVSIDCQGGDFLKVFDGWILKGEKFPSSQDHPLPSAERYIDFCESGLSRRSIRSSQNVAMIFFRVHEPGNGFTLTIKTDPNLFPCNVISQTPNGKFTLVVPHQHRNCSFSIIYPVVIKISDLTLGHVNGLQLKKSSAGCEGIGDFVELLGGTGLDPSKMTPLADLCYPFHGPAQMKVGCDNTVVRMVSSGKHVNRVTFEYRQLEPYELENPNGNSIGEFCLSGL

[3] = target: T1, Corticotropin-releasing factor receptor 2/Corticotropin-releasing factor-binding protein; assay: activators of CRF receptor 2 with binding protein – uHTS hits, confirmation (AID 602473); type: functional; settings: read-out: EC50_Mean
[4] = blockers of CRF-binding protein–CRF-R2 complex – cell-based, uHTS hits, 384-well, dose response (AID 651639); type: functional, Homo sapiens; settings: read-out: IC50_Mean
[5] = microbe, parasite or virus in culture; type: functional; settings: Mycobacterium tuberculosis
[6] = bead-based luminescence quenchers, dual-tagged ARNT – biochemical, AlphaScreen, cherry-pick, artefact control for ARNT-TACC3 interaction inhibitor project, dose response (AID 651705); type: functional;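 note: AlphaScreen bead proximity signal that flags compounds interfering with the detection technology; potency reflects signal decrease which marks the compound as an assay artifact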
[7] = target: Ras and Rab interactor 1/Tyrosine-protein kinase ABL1 (Homo sapiens, UniProt P00519+Q13671); type: functional;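 note: biochemical TR-FRET dose-response test measuring inhibition of binding between Rin1 and Abl proteins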
INS1 = assay: INS-1E survival protection against cytokine death – cell-based, luminescence, retest, dose response (AID 449756); type: functional; settings: Rattus norvegicus;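 note: cell death triggered by IL-1 beta plus TNF-alpha plus IFN-gamma mixture; protective hits raise ATP signal compared with cytokine alone wells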
Protein Wnt-3a = Protein Wnt-3a (Mus musculus, UniProt P27467); assay: antagonism of Wnt3a pathway luciferase reporter – Wnt-LIGHT cells, luminescence, selectivity assay for Gli-SUFU antagonist project, dose response (AID 651570); type: functional; settings: read-out: IC50_Mean;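 note: Wnt-LIGHT reporter cells stimulated with conditioned medium from Wnt3a-producing cells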
BJ [8] = assay: BJ-TERT fibroblast viability loss – cell-based, RAS-independent, luminescence, dose response (AID 1933); type: functional; settings: Homo sapiens
BJ [9] = assay: cells; type: functional, cell-based; settings: Homo sapiens
BJ [10] = assay: BJ-TERT-LT-ST fibroblast viability loss – cell-based, RAS-independent, luminescence, dose response (AID 1935); type: functional; settings: Homo sapiens;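 note: BJ fibroblasts immortalized with TERT plus LT and ST oncogenes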
[11] = DRD fibroblast viability loss – cell-based, non-viral oncogenic, luminescence, dose response (AID 1934); type: functional; settings: Homo sapiens
[12] = viability of uninfected HEp-2 cells – cell-based, HTS, cytotoxicity control for RSV inhibitor project, dose response (AID 2410); type: functional; settings: human respiratory syncytial virus
[13] = Luminescence Cell-Based Dose Response HTS to Identify Inhibitors of 5'UTR Stem-Loop Driven Prion Protein mRNA Translation in H4 Neuroglioblastoma Cells. [Related pubchem assays: 1827 (Project Summary), 1813 (Primary HTS)]; type: functional
[14] = alpha-synuclein stem-loop luciferase translation blockers – H4 neuroglioma cells, luminescence, confirmation (AID 1988); type: functional, cell-based
Vero [15] = assay: cells; type: functional, cell-based; settings: Chlorocebus sabaeus
[16] = reduction of Shn3 3'UTR-driven luciferase in osteoblasts – cell-based, Clone20 osteoblasts, firefly luciferase, cherry-picked, dose response (AID 624132); type: functional;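 note: firefly luciferase luminescence from reporter carrying the Shn3 3'UTR in osteoblasts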
[17] = loss of viability in HepG2 cells – cell-based, CellTiter-Glo, cherry-picked, cytotoxicity control for Shn3 inhibitor project, dose response (AID 624134); type: functional
[18] = non-specific 3'UTR reporter inhibition in Clone20-Shn3RL – cell-based, Renilla luciferase, cherry-picked, counter-screen for Shn3 inhibitor project, dose response (AID 624133); type: functional
Vero [19] = assay: cells; type: functional; settings: Chlorocebus sabaeus
[20] = viability of PTEN-deleted HCT116 cells – cell-based, HCT116 PTEN knockout, dose response (AID 1047); type: functional;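 note: HCT116 colon tumor cells with PTEN knocked out; cells exposed to compound for 60 hours before readout; potency for loss of cell viability measured by luminescence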
[21] = viability of HCT116 lacking mutant beta-catenin – cell-based, human colon tumor, dose response (AID 1045); type: functional;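 note: HCT116 colon tumor cells with beta catenin knocked out; cells exposed to compound for 60 hours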
Coagulation factor XII = target: T2, Coagulation factor XII (Homo sapiens, UniProt P00748); type: functional;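 note: activated factor XIIa alpha cleaving a fluorogenic AMC peptide substrate; inhibitor potency from loss of enzyme activity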
T2 sequence (P00748 whole entry): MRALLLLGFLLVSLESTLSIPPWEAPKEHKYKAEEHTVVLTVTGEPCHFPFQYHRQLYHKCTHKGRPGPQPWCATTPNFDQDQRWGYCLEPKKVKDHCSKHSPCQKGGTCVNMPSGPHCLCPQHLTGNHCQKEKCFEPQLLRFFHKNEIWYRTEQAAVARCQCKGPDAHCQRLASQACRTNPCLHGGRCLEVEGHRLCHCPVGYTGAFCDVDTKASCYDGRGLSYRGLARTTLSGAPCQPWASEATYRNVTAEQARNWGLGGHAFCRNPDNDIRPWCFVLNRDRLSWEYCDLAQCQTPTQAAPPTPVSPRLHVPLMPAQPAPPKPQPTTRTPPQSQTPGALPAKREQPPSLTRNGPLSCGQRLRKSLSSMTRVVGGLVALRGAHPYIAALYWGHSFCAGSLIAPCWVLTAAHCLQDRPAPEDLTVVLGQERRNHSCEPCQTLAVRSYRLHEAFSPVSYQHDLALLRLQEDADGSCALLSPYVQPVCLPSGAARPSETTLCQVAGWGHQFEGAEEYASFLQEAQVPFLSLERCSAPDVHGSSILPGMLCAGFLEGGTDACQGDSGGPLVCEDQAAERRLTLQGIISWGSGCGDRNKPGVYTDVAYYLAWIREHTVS

[22] = target: T3, Heat shock factor protein 1 (Mus musculus, UniProt P38532); assay: enhancement of HSF1-driven luciferase signal – cell-based, NIH3T3, luminescence, dose retest, confirmation (AID 435004); type: functional;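 note: stress induced by proteasome inhibitor MG132 added 30 min after compound; luciferase reporter driven by HSF1 response element in NIH3T3 cells; actives raise luminescence as potentiators of the MG132 stress response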
T3 sequence (P38532 whole entry): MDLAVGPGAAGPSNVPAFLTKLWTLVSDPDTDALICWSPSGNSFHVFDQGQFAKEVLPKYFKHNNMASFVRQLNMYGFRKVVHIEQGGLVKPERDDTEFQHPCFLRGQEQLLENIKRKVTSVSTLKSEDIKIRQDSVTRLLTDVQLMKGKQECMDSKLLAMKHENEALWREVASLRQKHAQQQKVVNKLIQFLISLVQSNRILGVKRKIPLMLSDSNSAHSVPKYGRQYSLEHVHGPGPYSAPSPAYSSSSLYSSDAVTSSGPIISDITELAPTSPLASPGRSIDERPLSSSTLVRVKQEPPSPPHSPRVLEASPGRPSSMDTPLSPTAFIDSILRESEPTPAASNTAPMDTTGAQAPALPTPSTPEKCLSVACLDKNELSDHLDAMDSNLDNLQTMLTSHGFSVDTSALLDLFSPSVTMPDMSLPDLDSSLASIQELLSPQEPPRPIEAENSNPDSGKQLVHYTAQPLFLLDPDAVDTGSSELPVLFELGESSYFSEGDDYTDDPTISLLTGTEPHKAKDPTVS

[23] = target: T4, Short transient receptor potential channel 4 (Mus musculus, UniProt Q9QUQ5); assay: block of DAMGO-driven TRPC4 calcium entry – cell-based, HEK293 TRPC4/mu-opioid, Fluo-4 calcium, dose response (AID 434942); type: functional;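 note: potency of inhibitors blocking the TRPC4 calcium response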
T4 sequence (Q9QUQ5 whole entry): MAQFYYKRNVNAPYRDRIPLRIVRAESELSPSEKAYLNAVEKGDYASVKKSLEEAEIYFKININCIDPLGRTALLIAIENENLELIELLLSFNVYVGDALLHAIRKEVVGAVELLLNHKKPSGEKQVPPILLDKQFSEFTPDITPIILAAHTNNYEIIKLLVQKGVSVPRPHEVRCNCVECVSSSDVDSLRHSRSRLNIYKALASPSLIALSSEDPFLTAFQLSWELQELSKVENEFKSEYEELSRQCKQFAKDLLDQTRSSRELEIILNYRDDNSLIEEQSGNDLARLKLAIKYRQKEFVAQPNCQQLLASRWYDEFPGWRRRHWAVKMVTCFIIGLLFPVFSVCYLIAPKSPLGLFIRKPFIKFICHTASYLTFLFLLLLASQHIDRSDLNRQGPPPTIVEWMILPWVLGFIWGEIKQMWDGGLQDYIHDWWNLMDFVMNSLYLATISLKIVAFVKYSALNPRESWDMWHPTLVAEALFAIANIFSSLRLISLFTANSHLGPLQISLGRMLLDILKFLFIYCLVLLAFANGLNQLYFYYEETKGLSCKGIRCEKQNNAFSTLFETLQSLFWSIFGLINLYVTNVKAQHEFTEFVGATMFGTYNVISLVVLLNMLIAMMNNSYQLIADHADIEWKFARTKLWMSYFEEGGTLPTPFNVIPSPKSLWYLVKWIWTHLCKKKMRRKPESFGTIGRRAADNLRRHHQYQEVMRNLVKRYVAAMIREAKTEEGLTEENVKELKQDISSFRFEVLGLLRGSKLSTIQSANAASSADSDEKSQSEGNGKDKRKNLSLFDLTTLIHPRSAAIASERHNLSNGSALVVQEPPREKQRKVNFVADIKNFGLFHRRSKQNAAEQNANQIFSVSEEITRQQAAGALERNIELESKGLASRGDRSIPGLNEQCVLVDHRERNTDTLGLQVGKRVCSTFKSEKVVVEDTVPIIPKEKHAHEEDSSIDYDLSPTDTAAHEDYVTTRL

[24] = luciferase reporter signal suppression in cells – H4 neuroglioma cells, luminescence, dose response (AID 1990); type: functional, cell-based
[25] = target: T3, Heat shock factor protein 1; assay: decrease of HSF1-responsive luciferase luminescence – cell-based, NIH3T3, dose retest, confirmation (AID 2382); type: functional;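 note: NIH3T3 fibroblasts with HSF1-driven luciferase reporter stressed by proteasome inhibitor MG132; luminescence from HSF1-driven luciferase expression after 8 hours of MG132 stress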

Protein Wnt-3a, sequence (P27467 whole entry): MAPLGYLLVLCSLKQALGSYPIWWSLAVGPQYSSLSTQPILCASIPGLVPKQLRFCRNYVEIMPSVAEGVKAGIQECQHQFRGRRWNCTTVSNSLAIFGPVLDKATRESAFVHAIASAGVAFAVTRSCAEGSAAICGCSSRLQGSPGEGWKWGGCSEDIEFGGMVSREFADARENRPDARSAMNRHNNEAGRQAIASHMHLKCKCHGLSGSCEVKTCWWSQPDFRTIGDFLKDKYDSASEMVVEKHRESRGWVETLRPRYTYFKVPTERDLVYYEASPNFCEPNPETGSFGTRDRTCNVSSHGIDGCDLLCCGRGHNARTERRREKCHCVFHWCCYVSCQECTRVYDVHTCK
Ras and Rab interactor 1/Tyrosine-protein kinase ABL1, sequence (P00519 whole entry): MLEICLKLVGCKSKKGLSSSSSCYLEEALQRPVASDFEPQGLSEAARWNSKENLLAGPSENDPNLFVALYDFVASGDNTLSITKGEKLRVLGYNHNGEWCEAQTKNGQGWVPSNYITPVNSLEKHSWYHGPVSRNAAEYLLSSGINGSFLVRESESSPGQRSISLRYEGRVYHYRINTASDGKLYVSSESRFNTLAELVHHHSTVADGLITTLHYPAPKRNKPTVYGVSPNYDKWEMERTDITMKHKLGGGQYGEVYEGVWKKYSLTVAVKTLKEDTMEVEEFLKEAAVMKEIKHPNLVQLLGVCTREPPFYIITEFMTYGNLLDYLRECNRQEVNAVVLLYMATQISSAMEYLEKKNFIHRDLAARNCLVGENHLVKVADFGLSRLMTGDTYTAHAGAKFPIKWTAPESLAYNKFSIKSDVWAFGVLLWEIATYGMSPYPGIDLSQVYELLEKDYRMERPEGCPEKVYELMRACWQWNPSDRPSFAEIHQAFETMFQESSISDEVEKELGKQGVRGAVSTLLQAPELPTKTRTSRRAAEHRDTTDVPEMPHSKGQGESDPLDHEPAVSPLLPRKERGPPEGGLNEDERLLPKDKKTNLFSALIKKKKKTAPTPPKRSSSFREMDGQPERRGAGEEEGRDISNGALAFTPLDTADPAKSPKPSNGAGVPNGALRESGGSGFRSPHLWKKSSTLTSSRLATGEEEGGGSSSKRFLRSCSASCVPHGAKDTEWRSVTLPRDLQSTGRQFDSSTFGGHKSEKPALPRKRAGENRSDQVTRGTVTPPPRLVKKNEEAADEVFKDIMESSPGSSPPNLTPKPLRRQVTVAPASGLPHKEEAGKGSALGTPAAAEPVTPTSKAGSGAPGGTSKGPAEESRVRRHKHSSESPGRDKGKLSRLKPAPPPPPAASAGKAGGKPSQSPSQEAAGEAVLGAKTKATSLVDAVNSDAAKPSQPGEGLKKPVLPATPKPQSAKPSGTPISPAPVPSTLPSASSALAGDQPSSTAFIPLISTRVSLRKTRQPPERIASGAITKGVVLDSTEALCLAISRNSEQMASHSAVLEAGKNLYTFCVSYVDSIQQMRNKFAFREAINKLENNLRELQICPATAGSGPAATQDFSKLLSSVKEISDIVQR
Ras and Rab interactor 1/Tyrosine-protein kinase ABL1, sequence (Q13671 whole entry): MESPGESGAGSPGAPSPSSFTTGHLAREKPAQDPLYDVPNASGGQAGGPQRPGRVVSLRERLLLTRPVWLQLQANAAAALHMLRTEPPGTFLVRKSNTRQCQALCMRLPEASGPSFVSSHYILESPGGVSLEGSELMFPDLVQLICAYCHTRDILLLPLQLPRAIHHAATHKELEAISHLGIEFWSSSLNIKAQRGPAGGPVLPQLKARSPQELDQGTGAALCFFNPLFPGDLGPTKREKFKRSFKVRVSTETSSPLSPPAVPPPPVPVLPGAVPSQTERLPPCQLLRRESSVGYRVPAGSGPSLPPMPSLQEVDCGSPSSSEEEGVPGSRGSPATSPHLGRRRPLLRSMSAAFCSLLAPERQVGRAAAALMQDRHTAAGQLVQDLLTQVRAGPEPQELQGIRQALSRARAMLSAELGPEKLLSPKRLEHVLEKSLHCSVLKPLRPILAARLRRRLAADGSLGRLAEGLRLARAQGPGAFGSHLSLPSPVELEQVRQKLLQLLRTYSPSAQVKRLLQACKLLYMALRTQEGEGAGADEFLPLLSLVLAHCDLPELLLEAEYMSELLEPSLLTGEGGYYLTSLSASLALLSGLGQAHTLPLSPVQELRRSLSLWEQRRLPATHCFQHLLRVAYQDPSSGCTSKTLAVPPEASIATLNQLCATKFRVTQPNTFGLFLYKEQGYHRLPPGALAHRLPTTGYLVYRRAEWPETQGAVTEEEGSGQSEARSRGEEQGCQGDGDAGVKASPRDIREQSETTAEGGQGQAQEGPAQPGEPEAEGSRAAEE

Cc1cc(C)nc(SCc2ccc(C(=O)NNC(=O)Nc3cccc(Cl)c3)cc2)n1
AC50 [1]: 3.65 µM (active) | IC50 [2]: 5.95 µM (active) | EC50 [3]: > 53 µM (inactive) | IC50 [4]: 11.6 µM (active)

c1ccc(-c2n[nH]c(-c3ccccn3)n2)cc1
CC50 [5]: > 40 µM (active) | AC50 [6]: 116 µM (active)

CCOCc1nnc(NC(=O)c2c(OC)cccc2OC)s1
IC50 [7]: 18 µM (inactive)

COc1ccc(-[n+]2cc(-c3ccc(OC(F)F)cc3)n3c2CCCCC3)cc1
AC50 (INS1): 2.14 µM (active) | IC50 (Protein Wnt-3a): 12.3 µM (active)

O=c1[nH]c(=O)n(-c2ccc(F)cc2)c2c1C(C(F)(F)F)(C(F)(F)F)NC(c1ccc(F)cc1)=N2
EC50 (BJ [8]): > 150 µM (not active) | EC50 (BJ [9]): 66.7 µM (inconclusive) | EC50 (BJ [10]): > 150 µM (not active) | EC50 [11]: 25.7 µM (active) | AC50 (INS1): 5.15 µM (active) | IC50 [4]: 13.2 µM (active)

Cc1cc(C(=O)Cn2nnc3ccccc3c2=O)c(C)n1-c1ccccc1F
CC50 [12]: 20.4 µM (active) | EC50 [13]: 10.1 µM (active) | EC50 [14]: 9.28 µM (active) | IC50 (Vero [15]): 6.16 µM (active) | IC50 (cells): 30.9 µM (active)

Cc1cc(C)c(C(N)=O)c(SCC(=O)c2cc(C)n(-c3cc(C)on3)c2C)n1
AC50 [16]: 0.942 µM (active) | AC50 [17]: 1.68 µM (active) | AC50 [18]: 0.332 µM (active) | IC50 (Protein Wnt-3a): 1.8 µM (active)

O=C(Nc1ccccc1SCC1CSc2nc3ccccc3c(=O)n21)c1cccc(Cl)c1 (stereo not given)
CC50 [12]: 24.7 µM (active) | IC50 (Vero [15]): 14.9 µM (active) | CC50 (Vero [19]): > 25 µM (active) | IC50 (cells): 10.3 µM (active)

O=C(CN(C(=O)c1ccccc1Cl)C1CCCCC1)Nc1ccc(Cl)c([N+](=O)[O-])c1
EC50 [20]: 16.1 µM (active) | EC50 [21]: 17.4 µM (active) | IC50 (Coagulation factor XII): > 50 µM (inactive) | EC50 [22]: > 260 µM (inactive) | AC50 [16]: 5.1 µM (active) | AC50 [17]: 63.7 µM (active) | AC50 [18]: 10.8 µM (active)

CCOc1ccccc1N(C(=O)c1snc(C(N)=O)c1N)C(C(=O)NCc1ccccc1)c1ccc(O)cc1 (stereo not given)
EC50 [23]: 4.22 µM (active) | IC50 [7]: > 73.5 µM (inactive)

O=C(NC1CCCc2c1cnn2-c1ccccc1F)c1ccccn1 (stereo not given)
EC50 [24]: > 120 µM (not active) | EC50 [14]: 57.4 µM (active) | IC50 (Vero [15]): 5.73 µM (active) | CC50 (Vero [19]): > 25 µM (active)

COc1cccc(CNc2ccc(S(N)(=O)=O)cc2)c1OC
EC50 [25]: > 195 µM (not active) | IC50 (Coagulation factor XII): > 50 µM (inactive)

CCOC(=O)c1c(-c2ccc(OC)c(OC)c2)csc1NC(=O)C1CCCO1 (stereo not given)
IC50 [2]: 3.95 µM (active) | EC50 [3]: > 53 µM (inactive) | IC50 [4]: > 20 µM (inactive)

CCOC(CN=c1nc(N(C)C)ss1)OCC
IC50 (Protein Wnt-3a): 40.4 µM (inactive)

CN(C)CC1CCC/C(=C/c2ccc(Cl)cc2)C1=O (stereo not given)
IC50 (Vero [15]): > 25 µM (active) | CC50 (Vero [19]): 21.4 µM (active)

CC(=O)Nc1cccc(-c2ccnc3c2CC(C(=O)NCc2ccc(N4CCN(C)CC4)cc2)O3)c1 (stereo not given)
IC50 [7]: 14.4 µM (inactive)
